The supplement of paper PMC10307832

Tests used:
Assay in all cases: relative viability (nuclei count vs DMSO), 5 days (fraction); higher = more cells survive
[1] = compound: CC1=C(C=C(C=C1)NC(=O)C2=CC(=CC=C2)C(C)(C)C#N)NC3=CC4=C(C=C3)N=CN(C4=O)C [AZ628] + CC(=O)Nc1cccc(-n2c(=O)n(C3CC3)c(=O)c3c(Nc4ccc(I)cc4F)n(C)c(=O)c(C)c32)c1 [Trametinib] (partner 0.02 µM)
Method in brief: (§1)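 Five library-drug doses in √10 steps were combined with a fixed anchor-drug dose, or a single drug was given alone, by pin tool to lung cancer cell lines in 1536-well plates the day after seeding. Nuclei were stained and counted after 5 days. Relative viability is the nuclei count in treated wells over that in vehicle wells, taken as the median of duplicate plates.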

[2] = compound: C1CC2=C(C1)C=C(C=C2)OC3=NC(=C4C(=N3)N(C=N4)CC5=CC=C(C=C5)C6=CC=CC=C6)N[C@@H](CC7=CC=CC=C7)CO [QS11] + CC1(C)CCC(c2ccc(Cl)cc2)=C(CN2CCN(c3ccc(C(=O)NS(=O)(=O)c4ccc(N[C@H](CCN5CCOCC5)CSc5ccccc5)c(S(=O)(=O)C(F)(F)F)c4)cc3)CC2)C1 [Navitoclax] (partner 0.5 µM)
Method in brief: as §1

[3] = compound: CC1=C(C=C(C=C1)NC(=O)C2=CC(=CC=C2)C(C)(C)C#N)NC3=CC4=C(C=C3)N=CN(C4=O)C [AZ628] + O=C(c1cc(Cc2n[nH]c(=O)c3ccccc23)ccc1F)N1CCN(C(=O)C2CC2)CC1 [Olaparib] (partner 8 µM)
Method in brief: as §1

[4] = compound: C1CC2=C(C1)C=C(C=C2)OC3=NC(=C4C(=N3)N(C=N4)CC5=CC=C(C=C5)C6=CC=CC=C6)N[C@@H](CC7=CC=CC=C7)CO [QS11] + Cc1nc(NC(=O)N2CCC[C@H]2C(N)=O)sc1-c1ccnc(C(C)(C)C(F)(F)F)c1 [Alpelisib] (partner 2 µM)
Method in brief: as §1

Row | Cell Line | relative viability ([1]; first compound 0.08 µM) | relative viability ([1]; first compound 0.253 µM) | relative viability ([1]; first compound 0.8 µM) | relative viability ([1]; first compound 2.53 µM) | relative viability ([1]; first compound 8 µM) | relative viability ([2]; first compound 0.08 µM) | relative viability ([2]; first compound 0.253 µM) | relative viability ([2]; first compound 0.8 µM) | relative viability ([2]; first compound 2.53 µM) | relative viability ([2]; first compound 8 µM) | relative viability ([3]; first compound 0.08 µM) | relative viability ([3]; first compound 0.253 µM) | relative viability ([3]; first compound 0.8 µM) | relative viability ([3]; first compound 2.53 µM) | relative viability ([3]; first compound 8 µM) | relative viability ([4]; first compound 0.08 µM) | relative viability ([4]; first compound 0.253 µM) | relative viability ([4]; first compound 0.8 µM) | relative viability ([4]; first compound 2.53 µM) | relative viability ([4]; first compound 8 µM)
1 | NCI-H1755 | 0.63 | 0.604 | 0.483 | 0.561 | 0.305 | 1.03 | 0.994 | 0.531 | 0.898 | 0.834 | 0.917 | 0.869 | 0.86 | 0.832 | 0.845 | 1.07 | 0.947 | 0.632 | 0.835 | 0.857
2 | NCI-H460 | 0.161 | 0.0829 | 0.0419 | 0.0397 | 0.0115 | 1.1 | 1.25 | 0.882 | 1.06 | 0.308 | 0.543 | 0.397 | 0.342 | 0.414 | 0.371 | 0.515 | 0.498 | 0.554 | 0.3 | 0.0919
3 | NCI-H2170 | 0.872 | 0.897 | 0.799 | 0.807 | 0.583 | 0.575 | 0.584 | 0.572 | 0.605 | 0.695 | 0.56 | 0.598 | 0.607 | 0.638 | 0.551 | 0.785 | 0.907 | 0.833 | 0.791 | 1.16
4 | NCI-H3122 | 0.157 | 0.143 | 0.159 | 0.138 | 0.132 | 1.01 | 1.06 | 0.698 | 1.06 | 0.817 | 0.652 | 0.634 | 0.561 | 0.565 | 0.379 | 0.879 | 1 | 0.745 | 1.12 | 0.839
5 | COR-L 105 | 0.435 | 0.401 | 0.382 | 0.352 | 0.36 | 0.77 | 0.618 | 0.788 | 0.733 | 0.83 | 0.754 | 0.83 | 0.704 | 0.684 | 0.816 | 0.931 | 0.946 | 1.13 | 0.745 | 0.771
6 | NCI-H2087 | 0.18 | 0.191 | 0.161 | 0.152 | 0.184 | 1.05 | 1.02 | 0.733 | 0.931 | 0.785 | 0.446 | 0.491 | 0.383 | 0.537 | 0.181 | 1.18 | 1.02 | 0.95 | 0.743 | 0.858
7 | NCI-H1792 | 0.333 | 0.247 | 0.117 | 0.195 | 0.052 |  | 0.744 | 0.5 | 0.6 | 0.479 | 0.508 | 0.332 | 0.382 | 0.293 | 0.26 |  | 0.708 | 0.539 | 0.609 | 0.785
8 | HCC-366 | 0.277 | 0.242 | 0.204 | 0.233 | 0.156 | 1.05 | 1.08 |  | 0.721 | 0.414 | 0.358 | 0.31 | 0.263 | 0.271 | 0.192 | 0.55 | 0.361 |  | 0.296 | 0.244
9 | NCI-H2347 | 0.233 | 0.277 | 0.261 | 0.256 | 0.27 | 0.598 | 0.826 | 0.716 | 0.743 | 0.839 | 0.516 | 0.537 | 0.506 | 0.594 | 0.43 | 1.11 | 1.06 | 0.929 | 0.918 | 1.21
10 | 201T | 0.709 | 0.693 | 0.71 | 0.667 | 0.561 | 1.19 | 1.22 | 0.994 | 1.24 | 1.17 | 0.909 | 0.865 | 0.908 | 0.868 | 0.926 | 1.02 | 1.07 | 0.92 | 1.08 | 0.949
11 | NCI-H1993 | 0.456 | 0.516 | 0.479 | 0.535 | 0.667 | 0.833 | 0.761 | 0.997 | 0.946 | 0.893 | 1.18 | 1.19 | 1.05 | 0.933 | 0.773 | 0.559 | 0.643 | 0.693 | 0.699 | 0.668
12 | NCI-H2009 | 0.208 | 0.177 | 0.198 | 0.179 | 0.194 | 1.13 | 1.19 | 0.972 | 1.02 | 0.981 | 0.711 | 0.778 | 0.862 | 0.789 | 0.461 | 1.18 | 1.19 | 1.12 | 0.969 | 0.999
13 | EMC-BAC-2 | 0.588 | 0.442 | 0.416 | 0.365 | 0.43 | 1.14 | 1.28 | 0.896 | 1.12 | 0.654 | 0.566 | 0.581 | 0.612 | 0.558 | 0.746 | 0.802 | 0.698 | 0.887 | 0.759 | 0.594
14 | NCI-H2023 | 0.402 | 0.338 | 0.203 | 0.237 | 0.183 | 1.02 | 1.02 | 0.925 | 1.16 | 1.12 | 0.452 | 0.427 | 0.522 | 0.508 | 0.433 | 0.678 | 0.597 | 0.619 | 0.747 | 0.722
15 | RERF-LC-KJ | 0.762 | 0.719 | 0.824 | 0.835 | 0.736 | 0.996 | 1.31 | 0.98 | 0.896 | 0.725 | 0.807 | 0.925 | 1.01 | 1.01 | 0.865 | 0.851 | 0.779 | 0.928 | 0.675 | 0.852
16 | H3255 | 0.525 | 0.413 | 0.384 | 0.401 | 0.365 | 0.552 | 0.587 |  | 0.55 | 0.704 | 0.561 | 0.557 | 0.596 | 0.611 | 0.427 | 0.782 | 0.773 |  | 0.671 | 0.903
